Measured values reported in publication PMC5571359, “Screening the Medicines for Malaria Venture Pathogen Box across Multiple Pathogens Reclassifies Starting Points for Open-Source Drug Discovery” (Antimicrobial Agents and Chemotherapy, 2017).
Read-outs that look alike come from different tables or passages of the source.

Key:
[1] = test system: T. cruzi C4 β-galactosidase reporter parasite in MRC 5SV2 host cells; settings: ref Pbox supporting information; read-out: T. cruzi Pbox IC50; cited from earlier work
[2] = test system: L. infanium (macrophages); parameters: method as in Pbox supporting information; settings: ref Pbox supporting information; cited from earlier work
barber's pole worm = test system: barber's pole worm; parameters: method as in PMID 27524698; settings: cited from earlier work
T. brucei brucei = settings: ref Pbox supporting information; read-out: T.b. brucei Pbox IC50; cited from earlier work
T. brucei rhodesiense = settings: ref Pbox supporting information; read-out: T .b. rohdensie Pbox IC50; cited from earlier work
[3] = test system: L. infanium (macrophages); parameters: method as in Pathogen Box supporting information; settings: ref Pathogen Box supporting information, read-out: L. infanium (macrophages) Pbox IC50; cited from earlier work
[4] = test system: T. b. brucei 427 bloodstream trypanosomes; assay: T. b. brucei resazurin viability assay; assay type: cell-based, Trypanosoma brucei brucei; settings: for IC50: Trypanosoma brucei
[5] = test system: T. cruzi intracellular amastigotes; assay: Intracellular anti-Trypanosoma cruzi image-based assay (amastigotes); assay type: cell-based
[6] = test system: Plasmodium falciparum 3D7 asexual blood stage
HEK293 cells [7] = assay: HEK293 resazurin cell cytotoxicity assay
[8] = test system: L. donovani MHOM/IN/80/DD8 intracellular amastigotes; assay: Leishmania donovani intracellular amastigote assay in THP-1 cells; assay type: cell-based
P. falciparum ABS = settings: cited from earlier work; for EC50: ChEMBL Data, TCMDC, read-out: TCMDC (ref 93) EX50; for IC50: Pf 3D7, ref Pathogen Box supporting information, read-out: Pf 3D7 Pbox IC50
liver stage = settings: liver stage; ref Pathogen Box supporting information; read-out: LIVER STAGE Pbox IC50; cited from earlier work
Kinase CDPK1 = molecular target: Kinase CDPK1; parameters: method as in earlier work; settings: ChEMBL Data; read-out: CROWTHER ref 101) Kinase CDPK1 IC50; cited from earlier work
HepG2 = settings: cited from earlier work; for CC50: read-out: HepG2 PBox CC50 µM
[9] = test system: NF54-pfs16-LUC-GFP stage IV gametocytes; assay: Plasmodium falciparum late stage gametocyte (LSG) image-based assay; assay type: cell-based; settings: for IC50: Plasmodium falciparum
[10] = test system: Plasmodium falciparum 3D7 asexual blood stage; assay: microbe, parasite or virus in culture
[11] = test system: P. falciparum stage V gametocytes; settings: stage V gametocytes; ref Pathogen Box supporting information; read-out: PF stage V GAMS PBox IC50; cited from earlier work
HEK293 cells [12] = test system: HEK293 cells
[13] = test system: Candida albicans biofilm formation; parameters: method as in PMID 27795383; settings: cited from earlier work
[14] = HEK293 resazurin cell cytotoxicity assay; settings: human
3T3 host cells = assay: T. cruzi assay, activity against 3T3 host cells; assay type: cell-based; settings: reference compound set; IA = inactive at 16.4 μM
Experimental: page 4: […] Puromycin, 71 chloroquine, artesunate, DHA, pyronaridine and pyrimethamine were also tested in 72 IC50 format to act as internal reference compounds. 73 74 Intracellular anti-Trypanosoma cruzi Assay Protocol 75 The host cell cytoplasm, in which the parasite resides, is identified by the fluorescent 76 marker, HCS CellMask Green. Parasite and host cell nuclei are detected with the 77 fluorescent DNA intercalator, Hoechst 33342. The Opera® High Content Screening 78 System is used to take images of wells and a spot detection algorithm is used to 79 identify parasites within the cytoplasm. 80 81 Briefly, 1x 10^3 3T3 cells were added to collagen coated 384-well plates and following 82 24 hrs incubation at 37 °C, a multiplicity of infection (MOI) of 5:1 parasite: host cells 83 were added to the plate using a Multidrop liquid handler. Following additional 24 hrs 84 incubation, extracellular parasites were washed from the plates and RPMI with no […] 86 added to all wells. The final volume of media in the primary screening assay, before 87 addition of compound, was modified slightly to 55 µL. One µL of compounds, provided 88 by Compounds Australia, were diluted by the addition of 25 µL of sterile water. This […] 91 donovani). Five microliters of this dilution was added to assay plates. The final […] The final concentrations of compounds in the […] Following 48 hrs incubation in the presence 97 of compounds, wells were fixed, stained and read on the Opera® High Content 98 Screening System to assess compound activity. 99 The Z′-factor, as a measure of assay reproducibility, was determined from a plate […] The positive control used to calculate activity against […] To 103 assess the sensitivity of the T. cruzi assay, activity of the reference compounds 104 benznidazole, NFX, posaconazole and puromycin were determined. […] 108 resazurin as a measure of parasite viability. 109 T. b. brucei trypanosomes were cultured in vitro in HM1-9 medium supplemented with […] Fifty-five µL of logarithmic phase […] 112 incubated for 24 hrs at 37°C /5% CO2. Compounds were subsequently added to the […] Following […] 116 37°C / 5% CO2 followed by 22 hrs at room temperature. […] The percent

[15] = test system: Plasmodium cGMP-dependent protein kinase (PfPKG); parameters: method as in PMID 16325279, PMID 20643897; settings: cited from earlier work
[16] = Trypanosoma cruzi, intracellular amastigotes, Discovery Biology, read-out: T cruzi Discovery Biology IC50
[17] = Leishmania donovani, THP-1, intracellular amastigotes, Discovery Biology, some values carry an asterisk, read-out: L, donovani Discovery Biology IC50 µM
[18] = HepG2 CC50, ref Pathogen Box supporting information
[19] = NF54, read-out: Pf Stage IV GAMS Discovery Biology IC50 µM, stage IV gametocytes, Discovery Biology
[20] = 3D7, read-out: Pf 3D7 Discovery Biology IC50 µM, P. falciparum 3D7 asexual blood stage, Discovery Biology
[21] = NF54, read-out: Antiplasmodial IC50 (GAM / LSG), PBox compounds, stage IV gametocytes, single determination
[22] = read-out: IC50 T. brucei brucei (Discovery Biology)
[23] = HepG2 cytotoxicity, ref PBox supporting information

CCc1nn(C)c(C(=O)NCc2ccc(Oc3ccc(C)cc3)cc2)c1Cl [MMV688934, Tolfenpyrad]
IC50 [1]: 5350 nM
IC50 [2]: 45600 nM
activity against the helminth barber's pole worm (barber's pole worm): activity
IC50 (T. brucei brucei): 33000 nM
IC50 (T. brucei rhodesiense): 20400 nM

C[C@H](c1ccc2c(c1)CCCC2)N(C)c1ncc2c(N)nc(N)nc2n1 [MMV690103]
IC50 [3]: 470 nM
activity against T. brucei brucei in the Discovery Biology assay [4]: not active
activity against T. cruzi in the Discovery Biology assay [5]: demonstrated activity
IC50 [5, 16]: 0.1 µM
activity in the Discovery Biology ABS assay [6]: not active
activity in the HEK293 cytotoxicity assay (HEK293 cells [7]): no activity
activity against L. donovani in the Discovery Biology assay [8]: demonstrated activity
IC50 [8, 17]: 5.2 µM

CC(C)(CN)c1nc(-c2ccc(Cl)c(O)c2)c(-c2ccnc(N)n2)[nH]1 [MMV030734]
EC50 (P. falciparum ABS): 980 nM
IC50 (P. falciparum ABS): 410 nM
IC50 (liver stage): 320 nM
IC50 (Kinase CDPK1): 7 nM
CC50 (HepG2; [18]): > 10 µM

CC(c1cc(Cl)cc(Cl)c1)N(C)c1ncc2c(N)nc(N)nc2n1 (centres unmarked) [MMV689437]
IC50 [3]: 540 nM
activity against T. brucei brucei in the Discovery Biology assay [4]: not active
activity against T. cruzi in the Discovery Biology assay [5]: demonstrated activity
IC50 [5, 16]: 0.19 µM
activity in the Discovery Biology ABS assay [6]: not active
activity in the HEK293 cytotoxicity assay (HEK293 cells [7]): no activity
activity against L. donovani in the Discovery Biology assay [8]: demonstrated activity
IC50 [8, 17]: 5.73 µM

CN(C(=O)c1cc2c(-c3cncnc3)cccc2[nH]1)c1ccccc1 [MMV024443]
EC50 (P. falciparum ABS): 630 nM
IC50 (P. falciparum ABS): 720 nM
IC50 (liver stage): 1020 nM
IC50 [9, 19]: 2.71 µM
IC50 (Kinase CDPK1): 270 nM
CC50 (HepG2; [18]): > 10 µM
IC50 [10, 20]: 1.69 µM
IC50 [11]: 570 nM

Cc1cc(C2=NOC(c3cc(Cl)c(F)c(Cl)c3)(C(F)(F)F)C2)ccc1C(=O)NCc1ccc2c(c1)C(C)(C)OB2O (centres unmarked) [MMV687776]
selectivity index (SI) T. cruzi versus HEK293 ([5]; HEK293): > 8
selectivity index (SI) T. cruzi versus HEPG2 ([5]; HEPG2 (PBox data)): 4.3
IC50 ([5]; Trypanosoma cruzi, PBox compounds, intracellular amastigotes, 48 h exposure, read-out: IC50 T. cruzi (Discovery Biology)): 2.39 µM
activity in the HEK293 cytotoxicity assay (HEK293 cells [12]): did not display activity
HepG2 PBox CC20 μMc (HepG2): 10900 nM
IC50 (HepG2): 10900 nM

Cc1[nH]c2ccccc2c1C(c1cccs1)N1CCN(C)CC1 (centres unmarked) [MMV688768]
selectivity index (SI) T. brucei brucei versus HEK293 ([4]; HEK293): > 13
selectivity index (SI) T. brucei brucei versus HEPG2 ([4]; HEPG2 (PBox data)): > 6
IC50 ([4]; PBox compounds, read-out: IC50 T. brucei brucei (Discovery Biology)): 1500 nM
IC50 [9, 21]: 4.7 µM
activity in the Discovery Biology ABS assay [6]: not ABS activity
HepG2 PBox CC20 μMc (HepG2; ref Pbox supporting information): 8500 nM
IC50 (HEK293 cells [7]; Homo sapiens, HEK293, read-out: HEK % Inhibition 20uM/IC50 Discovery Biology (IA)): > 20000 nM
IC50 ([8]; Leishmania donovani, THP-1, intracellular amastigotes, values marked *, read-out: L, donovani Discovery Biology IC50 µM): 5.4 µM
activity against Candida albicans biofilm formation [13]: inhibitory activity

COc1ccc(Oc2ccc([C@@H](C)N(C)c3ncc4c(N)nc(N)nc4n3)cc2)cc1 [MMV690102]
IC50 [3]: 30 nM
activity against T. brucei brucei in the Discovery Biology assay [4]: not active
activity against T. cruzi in the Discovery Biology assay [5]: demonstrated activity
IC50 [5, 16]: 0.09 µM
activity in the Discovery Biology ABS assay [6]: not active
activity in the HEK293 cytotoxicity assay (HEK293 cells [7]): no activity
activity against L. donovani in the Discovery Biology assay [8]: demonstrated activity
IC50 [8, 17]: 0.46 µM

CCOC(=O)c1c(NC(=O)c2c(F)c(F)c(F)c(F)c2F)sc(C(N)=O)c1C [MMV153413]
IC50 [4, 22]: 2990 nM
IC50 [9, 21]: 1.06 µM
activity in the Discovery Biology ABS assay [6]: not ABS activity
CC50 (HepG2; [23]): 4.2 µM
selectivity ratio at 72 h [14]: > 5

CC(C)(C)[C@H]1CC[C@H](CC2=C(O)C(=O)c3ccccc3C2=O)CC1 [Buparvaquone, reference compound]
IC50 ([4]; reference compound set, IA = inactive at 20 μM, read-out: IC50 T. brucei brucei trypomastigotes): > 20000 nM
IC50 ([9]; NF54, read-out: IC50 P. falciparum NF54 LSG, reference compound set, 11-point dose response, IA = inactive at 20 μM): 5.3 µM
IC50 ([5]; Trypanosoma cruzi, reference compound set, IA = inactive at 16.4 μM, read-out: IC50 T. cruzi intracellular amastigotes): 4.92 µM
Emax ([5]; Trypanosoma cruzi, reference compound set, read-out: T. cruzi Emax (maximal % inhibition plateau in dose response curve)): 98.5%
IC50 (3T3 host cells): > 16400 nM
IC50 ([10]; 3D7, read-out: IC50 P. falciparum 3D7 ABS, reference compound set, 11-point dose response, IA = inactive at 20 μM): 0.14 µM
IC50 at 72 h ([14]; HEK293 cells): > 20000 nM
IC50 ([8]; Leishmania donovani, THP-1, read-out: IC50 L. donovani n = 1, reference compound set, first test, IA = inactive at 20 μM): 1.88 µM
inhibition at 20 µM ([8]; Leishmania donovani, THP-1, reference compound set, second test, 20 μM, read-out: percent inhibition at the top screening dose, L. donovani n = 2): 60%

CC(C)=CCC/C(C)=C/CNCCNC1C2CC3CC(C2)CC1C3 (centres unmarked) [MMV687273, SQ-109]
activity against T. brucei brucei in the Discovery Biology assay [4]: active
IC50 [4, 22]: 2280 nM
IC50 [9, 19]: 1.89 µM
activity against T. cruzi in the Discovery Biology assay [5]: active
IC50 ([5]; Trypanosoma cruzi, read-out: T cruzi Discovery Biology IC50 µM): 5.39 µM
activity in the Discovery Biology ABS assay [6]: active
CC50 (HepG2; [23]): 7.1 µM
IC50 [10, 20]: 1.43 µM
IC50 ([10]; 3D7, read-out: activity against P. falciparum (novel antiplasmodial actives of the tuberculosis set)): < 2 µM
selectivity ratio at 72 h [14]: > 5
activity against L. donovani in the Discovery Biology assay [8]: active
IC50 ([8]; Leishmania donovani, THP-1, read-out: IC50 L. donovani (Discovery Biology), PBox compounds, intracellular amastigotes): 3.47 µM

CN1CCC(c2cc(-c3ccncc3)c(-c3ccc(F)cc3)[nH]2)CC1 [MMV688703]
activity in the Discovery Biology stage IV gametocyte (LSG) assay [9]: does not affect
IC50 [15]: 8.5 nM
IC50 ([10]; 3D7, read-out: Antiplasmodial IC50 (ABS), PBox compounds, P. falciparum 3D7): 3.16 µM

Nc1ncc(-c2cn[nH]c2)cc1-c1nc2cc(Cl)cnc2[nH]1 [MMV023370]
EC50 (P. falciparum ABS): 920 nM
IC50 (P. falciparum ABS): 400 nM
IC50 (Kinase CDPK1): 280 nM
